In publication PMC12591170, “Glabridin‐Gold(I) Complex as a Novel Immunomodulatory Agent Targeting TrxR and MAPK Pathways for Synergistic Enhancement of Antitumor Immunity” (Advanced Science, 2025):

Legend:
HepG2 cells [1] = experiment: MMP measurement (JC-1); assay type: cell-based, human; settings: HepG2, 24 h
Description: 12‐well plate was applied to incubate HepG2 cells (5 × 10^4 cells per wells). After overnight, cells were treated with DMF (0.1%), AF (4 µM) or different concentrations of 6d (2, 4, 8 µM) for 24 h. 2.5 µg mL^−1 JC‐1 probe was added in the wells after removing original liquid. 15 min later, PBS was applied to wash cells for two times. Then, the fluorescence images were captured by the fluorescence microscopy.

phosphorylated Akt = experiment: Western blot of phosphorylated Akt in HepG2; assay type: cell-based, human; settings: HepG2, 24 h; GLA at 8 µM
Description: (§1) HepG2 cells were incubated in 6 cm culture dishes and treated with different complexes. The treated cells were lysed with lysis buffer (RIPA:PMSF:phosphatase inhibitor:protease inhibitor = 100:1:1:1). The lysed cells were further broken by sonication, and proteins were isolated by centrifugation. The protein concentrations were detected by BCA assay. 10% SDS PAGE gel was usually applied to separate the different kDa of proteins, and more than 200 kDa of proteins were separated using 8% SDS PAGE gel. After seperation, proteins were transferred onto polyvinylidene difluoride (PVDF) membranes. The target proteins were labeled by various specific primary antibodies at 4 °C overnight. Then, the membranes were treated with anti‐rabbit or anti‐mouse secondary antibody for 2 h. Tris buffered saline with tween 20 (TBST) was applied to wash the membranes after each operation above. The target proteins’ bands were detected by the enhanced chemiluminescence (ECL) procedure.

[2] = test system: MAPK pathway (phosphorylated MEK1/2 and ERK1/2); experiment: Western blot of MAPK pathway in HepG2; assay type: cell-based, human; settings: HepG2, 24 h
Description: as §1

[3] = test system: MAPK pathway (phosphorylated MEK1/2 and ERK1/2); experiment: In vivo MAPK pathway in tumor tissue; design: species or system C57BL/6 mice; settings: western blot, day 13
HIF-1α = experiment: Western blot of HIF-1α in HepG2; assay type: cell-based, human; settings: HepG2, 24 h
Description: as §1

293T cells = experiment: MTT assay, normal kidney cell line 293T; assay type: cell-based; settings: 72 h MTT assay, Mean ± SD
Description: (§2) All cells were incubated at 37 °C by DMEM complete medium (containing 1% penicillin−streptomycin and 12% FBS) in 5% CO2 incubator. 2–5 × 10^3 cells were cultured in 96‐well plates and each well contained 100 µL complete medium. OXA was dissolved in water, and all other complexes were dissolved in DMF. After cells adhered in the wells, different concentrations of complexes were diluted in 100 µL complete medium and added in the wells. The final volume in the each well was 200 µL and the content of DMF was maximum 0.5%. After 72 h incubation, the antiproliferative activity was tested by MTT assay.

TrxR = target: T1, TrxR (Homo sapiens, UniProt Q16881); experiment: Intracellular TrxR activity (kit, probe) and TrxR expression in HepG2; assay type: cell-based
T1 construct: endogenous in cells; host or cells: HepG2
T1 sequence (Q16881 151-649 limits assumed): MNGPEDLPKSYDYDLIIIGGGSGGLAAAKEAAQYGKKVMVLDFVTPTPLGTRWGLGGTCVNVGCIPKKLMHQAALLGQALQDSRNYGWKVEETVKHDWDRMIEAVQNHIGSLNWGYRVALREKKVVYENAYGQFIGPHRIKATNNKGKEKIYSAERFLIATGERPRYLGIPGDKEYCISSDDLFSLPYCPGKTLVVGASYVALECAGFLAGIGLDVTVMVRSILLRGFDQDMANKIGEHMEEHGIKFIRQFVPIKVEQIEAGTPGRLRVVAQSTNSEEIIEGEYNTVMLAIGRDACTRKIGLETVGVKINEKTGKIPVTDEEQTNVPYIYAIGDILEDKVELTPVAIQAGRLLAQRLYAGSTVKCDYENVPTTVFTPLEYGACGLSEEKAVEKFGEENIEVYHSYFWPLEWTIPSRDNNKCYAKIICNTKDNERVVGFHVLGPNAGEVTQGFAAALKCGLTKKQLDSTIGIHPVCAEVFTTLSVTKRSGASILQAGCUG
Description: 1 × 10^6 HepG2 cells were cultured in 6 cm culture dishes, and treated with DMF (0.1%), AF (4 µM) or different concentrations of 6d (2, 4, 8 µM) after cell adhesion. 24 h later, the intracellular TrxR activity was analyzed by the TrxR activity detection kit.
In addition, intracellular TrxR activity was detected by TrxR probe. 5 × 10^4 HepG2 cells were seeded in 12‐well plate. After 24 h, the complete medium was removed, and the each well was washed twice by phosphate buffer saline (PBS). 10 µM TrxR probe (dissolved in PBS) was added for 1 h incubation. Then, the probe was removed, and washing twice was performed by PBS. The fluorescence microscopy was applied to capture the cell images under the channel of FITC.
as §1, with “The target proteins were labeled by various specific primary antibodies at 4 °C overnight. Then, the membranes were treated with anti‐rabbit or anti‐mouse secondary antibody for 2 h. Tris buffered saline with tween 20 (TBST) was applied to wash the membranes after each operation above.” left out

Hepa1-6 tumors = experiment: In vivo antitumor assay, Hepa1-6 tumors; design: species or system C57BL/6 mice
Description: All mice were 6–8 weeks old males and procured from Hangzhou Medical College, located in Hangzhou, China. […] 2 × 10^6 Hepa1‐6 cells in 100 µL DMEM were subcutaneously seeded in underarms of C57BL/6 mice. […] Meanwhile, the mice weights and tumor volume were recorded, and the calculation formula of tumor volume was Volume = Width^2 × Length/2. After 13 days, all mice were sacrificed for collection of tumors, hearts, livers, spleens, lungs and kidneys. Collagenase IV (1 mg mL^−1) and DNase I (1 µg mL^−1) were applied to digest a part of the tumor tissue into cell suspension, and lysis buffer was used to remove red blood cells. The prepared cells above were stained with antibodies (anti‐CD3e‐FITC, and anti‐CD8a‐PE; anti‐CD11c‐APC, anti‐CD80‐PE, and anti‐CD86‐FITC; anti‐CD45‐Percp, anti‐CD11b‐APC, and anti‐Ly‐6G/Ly‐6C(Gr‐1)‐FITC; anti‐CD11b‐APC, anti‐CD206‐PE, and CD86‐FITC). CD3^+CD8^+ T cells, CD80^+CD86^+ DCs, CD11b^+Gr‐1^+ MDSCs, CD206^−CD86^+ M1‐type macrophages and CD206^+CD86^− M2‐type macrophages were analyzed by flow cytometry. Then, another part of tumor tissues were fixed with 4% paraformaldehyde, embedded in paraffin, cut into slices and stained with antibodies for immunofluorescence and immunohistochemistry analysis.

immature DCs = experiment: DC maturation assay with medium of treated Hepa1-6 cells; assay type: cell-based, C57BL/6 mouse; settings: 24 h
Description: The monocytes were extracted from the leg bone marrow of a C57BL/6 mouse and incubated in the 1640 complete medium with rmGM‐CSF (20 ng mL^−1) and IL‐4 (20 ng mL^−1). The medium was replaced partially every other day, and immature DCs were differentiated after 7 days. […] The medium from treated Hepa1‐6 cells was collected and coincubated with the differentiated DCs for 24 h. After cells collection, the coincubated DCs were labeled with CD11c antibody, CD80 antibody and CD86 antibody. Then, the DC maturation ratio was analyzed by a flow cytometer.

HepG2 cells [4] = experiment: MTT antiproliferative assay, HepG2; assay type: cell-based, human
Description: as §2

[5] = mouse, in vivo
Hepa1-6 cells = experiment: MTT antiproliferative assay, Hepa1-6; assay type: cell-based; settings: Hepa 1-6 cells
Description: as §2

PD-L1 = experiment: In vivo PD-L1 expression in tumor tissue; design: species or system C57BL/6 mice; settings: western blot, 13 days of treatment

CCn1ccn(CCCCCOc2ccc([C@@H]3COc4c(ccc5c4C=CC(C)(C)O5)C3)c(OCCCCCn3ccn(CC)[c]3=[Au][Br])c2)[c]1=[Au][Br] [6d]
mitochondrial membrane potential (MMP) (HepG2 cells [1]): decreased MMP
Akt phosphorylation (western blot) (phosphorylated Akt): inhibited Akt phosphorylation
ERK1/2 phosphorylation (western blot, Figure S49) [2]: downregulated ERK1/2 phosphorylation
phosphorylation of MEK1/2 and ERK1/2 (western blot) [2]: significantly inhibited
MAPK pathway activation (phosphorylation of MEK1/2 and ERK1/2) in tumor tissue [3]: significantly inhibited
HIF-1α expression (western blot) (HIF-1α): significantly inhibited
IC50 (293T cells): 5.14 ± 0.3 µM
TrxR expression level (western blot) (TrxR; HepG2, 24 h): did not downregulate TrxR expression levels
intracellular TrxR activity (TrxR; HepG2, 24 h, 2, 4, 8 µM, TrxR probe and activity assay kit): suppressed TrxR activity
tumor volume growth vs model group (Hepa1-6 tumors; after 11 days of treatment, 5 mg kg^−1 i.p. every two days): significant reduction in tumor volume growth
tumor growth vs model group (Hepa1-6 tumors; after 13 days, 6d and OXA 5 mg kg^−1, GLA 10 mg kg^−1, i.p. every two days): significant tumor growth inhibition
DC maturation (immature DCs): significantly induced DC maturation
IC50 (HepG2 cells [4]; 72 h MTT assay, Mean ± SD): 2.54 ± 0.13 µM
times more toxic than GLA (HepG2 cells [4]; HepG2 cells): 16 times
safe dose [5]: 5 mg/kg
times more toxic than GLA (Hepa1-6 cells): 34 times
PD-L1 expression in tumor tissue (PD-L1): inhibited
